Measurements: a melting point compilation (Tetko et al.; mined from patent text by program, amines drawn as free bases though some values may be those of a salt)

Row | melting point [°C] | SMILES
1 | 166 | CC(=O)OC1CSC(Oc2cncc(-c3c(C)nn(C)c3C)c2)C(OC(C)=O)C1OC(C)=O (stereo not drawn)
2 | 250 to 253 | Nc1nc(C2CCN(C(=O)Cc3ccc(O)c(O)c3)CC2)c2ccccc2n1
3 | 168 to 170 | NCCC(C(N)=O)c1ccc(O)cc1 (stereo not drawn)
4 | 176 to 179 | COc1cccc(CS(=O)c2nc3cnccc3[nH]2)c1 (stereo not drawn)
5 | 117 to 118 | CCOC(=O)c1cnn2c1nc(OCCC(C)C)c1cnc3c(cnn3CC)c12
6 | 191 to 192 | NC(=O)c1ccc(-c2cccc3cc(COc4cccc(C(F)(F)F)c4)sc23)cc1
7 | 111 to 113 | CC1CC(=O)c2c(OS(=O)(=O)c3cccs3)ccc(-c3nccs3)c2C1 (stereo not drawn)
8 | 190 to 194 | CCOCc1nc2c(N)nc3cc(OCCCCCCNS(C)(=O)=O)ccc3c2n1CC(C)(C)NC(=O)NC(C)C
9 | 120 | COC(=O)CCc1cc2nc(Cl)ccc2n1S(=O)(=O)c1cccc2cccnc12
10 | 152 to 154 | CC(=O)NCc1ccc(CN2CCN(c3ccc([N+](=O)[O-])cc3)CC2)cc1
11 | 204 to 206 | CC1(C)CC(=O)c2c(NCc3ccccc3)sc(-c3cc[nH]n3)c2C1
12 | 206 to 208 | Cc1ccc(S(=O)(=O)Oc2ccc(C(c3ccc(OS(=O)(=O)c4ccc(C)cc4)c([N+](=O)[O-])c3)(C(F)(F)F)C(F)(F)F)cc2[N+](=O)[O-])cc1
13 | 57 to 60 | CCCCCC(Oc1ccc(C2=CCCCCCC2)cc1)C(=O)O (stereo not drawn)
14 | 170 to 174 | COc1ccc(-c2csc(Nc3ccccc3)n2)cc1OC
15 | 90 to 92 | Nc1sc2c(c1C(=O)c1ccc(F)cc1)CCN(C(=O)OCc1ccccc1)C2
16 | 178 to 180 | N#Cc1ccc(C2CC(=O)N(CC3CC3)Cc3cncn32)cc1 (stereo not drawn)
17 | 204 to 205 | CCC(C(C)=CC(CNC(=O)c1cnc2nc(C)ccc2c1O)=NO)[N+](=O)[O-] (stereo not drawn)
18 | 234 | CC(=O)OC1CSC(Oc2ccc(I)nc2F)C(OC(C)=O)C1OC(C)=O (stereo not drawn)
19 | 124 to 125 | CC(C)NC1=NS(=O)(=O)c2cccc(Cl)c2N1
20 | 100 to 103 | O=C1CC2(CCCC2)C(=O)N1c1ccncc1
21 | 126 to 130 | O=c1c2c(Cl)cc(Cl)cc2n(Cc2ccccc2)c(=O)n1Cc1ccccc1F
22 | 126 to 127 | CCOC(=O)/C=C/c1ccc(/C=C(\C)c2ccc3c(c2)C(C)(C)CCC3(C)C)cc1
23 | 115 | CCOC(=O)c1cnc(-c2ccc(Cl)cc2)nc1-c1ccc(OC)c(OC)c1

Row | melting point [°C] | SMILES
24 | 188 to 189 | CS(=O)(=O)c1ccc(-c2cc(Br)nc(C(F)(F)F)c2-c2ccc(F)cc2)cc1
25 | 239 to 240 | Cc1[nH]c2ncnc(Nc3cccc(Cl)c3)c2c1C
26 | 162 to 163 | N#CCOc1ccc2cc(-c3cc4ccccc4o3)ccc2c1Cl
27 | 82 to 84 | O=C(OCc1ccccc1)C(C(=O)OCc1ccccc1)c1ncc(C(F)(F)F)cc1[N+](=O)[O-]
28 | 213 to 216 | CC(=O)c1ccc(-c2ncc[nH]2)cc1
29 | 156 to 158 | COc1cccc2cc(CNCCN3C(=O)CC4(CCCC4)CC3=O)oc12
30 | 137 to 139 | O=C1NCCc2cc(Br)ccc21
31 | 86 to 86.5 | CC(=O)c1cc([N+](=O)[O-])c(Cl)c([N+](=O)[O-])c1
32 | 172 to 174 | COc1cc2c(cc1OC)C[C@@H](N1CCN(c3ccccc3OC)CC1)[C@H](O)C2 (relative stereo)
33 | 189 to 190 | Clc1ccc(Nc2nnc(-c3cccc(Oc4ccc(Cl)c(Cl)c4)c3)s2)cc1Cl
34 | 90 to 92 | COc1ccc(Oc2ccc(C(F)(F)F)cc2Cl)cc1[N+](=O)[O-]
35 | 92 to 100 | CC(C)NCCCOc1ccc(O)cc1
36 | 92.5 to 95 | CN1C(=N)c2c(Cl)cccc2S1(=O)=O
37 | 98 to 100 | CCOC(=O)/C(=C/c1ccc(OC)c2c1CC(C)(C)O2)c1ccncc1
38 | 188 to 190 | COc1ccc(CC(=O)NC(NC(=NC#N)Nc2cccnc2OC)C(C)(Cl)Cl)cc1OC (stereo not drawn)
39 | 102 to 105 | CCCn1c(=O)n(C2CCN(C(=O)OC(C)(C)C)CC2)c2ccccc21
40 | 176 to 177 | Cc1nccn1Cc1cnn(-c2ccc(Cl)c(Cl)c2)c1
41 | 160 to 162 | CCCCSc1cc(C(=O)OCC)cc(S(N)(=O)=O)c1Cl
42 | 175 to 176 | COC(=O)NCCCCn1c(=O)c2c(C)nc3cccc1n32
43 | 199 to 201 | CC1=C(/C=C/S(=O)(=O)NC(C)C)C(c2cc([N+](=O)[O-])ccc2Cl)C(C(=O)OC(C)C)=C(C)N1 (stereo not drawn)
44 | 115 to 120 | NCCn1c(=O)nc(-c2ccc3c(c2)OCO3)c2cc3c(cc21)OCO3
45 | 156 to 157 | CCCC1CC(O)c2cc(S(N)(=O)=O)sc2S1 (stereo not drawn)
46 | 160 to 163 | CCOC(=O)C(C)Oc1cc(N=C(C(N)=O)N2CCCC2)c(Cl)cc1Cl (stereo not drawn)

Row | melting point [°C] | SMILES
47 | > 300 | CC(=O)OCCCCC#Cc1ccc2c3ccc4c5c(ccc(c6cccc1c62)c53)C(=O)N(c1c(C(C)C)cccc1C(C)C)C4=O
48 | 180 to 181 | CON(C)C(=O)c1cc2cccc(NS(=O)(=O)c3cccs3)c2[nH]1
49 | 85 to 87 | COc1ccc(Sc2ccc(CC(=O)O)cc2)cc1
50 | 196 to 200 | O=C(NC(Cc1ccccc1)C(=O)O)c1cc(-c2ccc(OCc3ccccc3)cc2)[nH]n1 (stereo not drawn)
51 | 56 to 58 | C#C[C@@H](O)C1CCCCC1
52 | 117 | CCCCCCCCCCOc1ccc(NC(=O)c2ccc(OC(C)=O)cc2)cc1OCCCCCCCCCC
53 | 111 to 114 | COC(=O)c1ccc(Cn2c(C=Cc3ccc(OC)c(OC)c3)nc3c(OC)c(C)c(C)c(OC)c32)cc1
54 | 114 to 118 | CC(=O)SCCN(CCc1ccccc1)C(=O)N[C@@H](Cc1ccc([N+](=O)[O-])cc1)C(=O)NCCC(=O)O
55 | 100 to 102 | O=C1COC(CCc2ccccc2)CN1 (stereo not drawn)
56 | 186 to 189 | CSc1cccc2nc3sccn3c(=O)c12
57 | 170 | Cc1cc2cc(CN3CCCCCC3)cnc2cc1NC(=O)c1ccc(-c2ccc(F)cc2)cc1F
58 | 218 to 220 | O=C(O)c1ccc(CN(C2CCCCC2)S(=O)(=O)c2ccc(F)cc2)cc1
59 | 58 to 63 | O=C(Oc1cccc2sc(-c3ccc(OCCN4CCCC4)cc3)c(C(=O)c3ccc(F)cc3)c12)c1ccc(F)cc1
60 | 285 | O=C(O)c1cncc2cccc([N+](=O)[O-])c12
61 | 41 to 42 | COC(=O)CCc1cc([N+](=O)[O-])c(O)c(C(C)(C)C)c1
62 | 122 to 125 | NC(=O)c1cnn2c1NCC=C2c1cccc(F)c1
63 | 119 to 120 | CCC(C)n1nc(C)n(-c2ccc(N3CCCN(C(=O)OC(C)(C)C)CC3)cc2)c1=O (stereo not drawn)
64 | 170 to 174 | N#Cc1c(-c2ccccc2)cc(-c2ccccc2)nc1N
65 | 184 | Cc1ncc2c(c1OCC(=O)O)COC2(C)c1ccc(Cl)cc1 (stereo not drawn)
66 | 133 to 135 | COc1cc2ncnc(N3CCC(N)CC3)c2cc1OC
67 | 129 to 132 | O=c1c2c(Cl)cc(Cl)cc2n(Cc2ccccc2)c(=O)n1Cc1ccccc1Br
68 | 169 to 171 | COC(=O)Nc1cn2cccc(Sc3ccccc3)c2n1
69 | 69 to 70 | COCOc1ccc(CCC(=O)c2c(OC)cc(OC)c(CCC(C)C)c2O)cc1OC

Row | melting point [°C] | SMILES
70 | 131 to 132 | C=Cc1cc(NC(=O)N2CCN(c3cc(C)cc(C)c3)CC2)c(OC)nc1C
71 | 96 to 97 | CCOc1nn(Cc2ccc(OCc3nc(-c4ccccc4)oc3C)cc2)cc1CCC(=O)O
72 | 152 to 155 | COCC(C)OC(=O)C(=O)Nc1nc(-c2ccccc2)cs1 (stereo not drawn)
73 | 97 to 98.5 | CCOC(=O)/C=C(C)/C=C/C(Br)=C(/C)c1ccc2c(c1)C(C)(C)CCC2(C)C
74 | 167 to 168 | CC(=O)OCC1OC(Cl)C(N=[N+]=[N-])C(OC(C)=O)C1OC1OC(COC(C)=O)C(OC(C)=O)C(OC(C)=O)C1OC(C)=O (stereo not drawn)
75 | 214 to 216 | O=C(Nc1ccccc1)c1ccc(Cn2cnc3ccccc32)cc1
76 | 235 to 236 | COc1cc(C=CC(=O)Nc2cnc3ccc(C)cc3c2-c2ccccc2Cl)cc(OC)c1O
77 | 183 to 187 | Cc1cc(C)cc(NC(=O)Cc2ccc(OC(C)C(=O)O)cc2)c1 (stereo not drawn)
78 | 180 to 183 | COc1nc(Nc2cc(C)ccc2N)nc(OC)n1
79 | 122 to 124 | CCN(CC)CCNc1ccnc2cc(C(F)(F)F)ccc12
80 | 85 | CSc1ccc(NC#N)c(-c2ccccc2)c1
81 | 92 to 94 | CCNC=C(C(=O)C=Cc1ccccc1)C(=O)OC
82 | 121 to 122 | CC(C)(C)OC(=O)N[C@@H]1C(=O)N(OCc2ccccc2)C1(C)C
83 | 50 to 53 | CCCCC1=NC2(CCCC2)C(=O)N1Cc1ccc(-c2ccccc2S(=O)(=O)Nc2onc(C)c2C)c(CCC(C)C)c1
84 | 250 to 252 | COc1cc2c(Nc3ccc(Br)cc3F)ncnc2cc1OCCCSC
85 | 153 to 155 | CCCCn1c(=O)n(O)c(=O)c2cc(F)c(N3CCCC3)nc21
86 | 70 | CNc1ccc(Cl)nc1
87 | 172 to 175 | Cn1cc(Cl)c2c1C(=O)Nc1ccccc1N2
88 | 69 to 71 | ClCCCOc1cccc2cccnc12
89 | 61 to 63 | CN(C)C(=O)c1cccnc1SCc1ccccc1
90 | 213 | Cc1c(C(=O)Nc2ccc(N3CCN(CCCO)CC3)c(C#N)c2)cnn1-c1ccc(Cl)cc1
91 | 172 to 173 | CCCNC(=S)NS(=O)(=O)c1cc2c(cc1OC)OCC(NC(=O)c1cc(F)ccc1OC)C2 (stereo not drawn)

Row | SMILES | melting point [°C]
92 | Cc1ccccc1C1CCN(CCc2c[nH]c3ccccc23)CC1 | 111 to 112
93 | CCCN(CCC)C1Cc2cccc3c2N(C1)C(=O)CN3 (stereo not drawn) | 97 to 99
94 | CC(C)N(Cc1nc(-c2ncn3c2CN(C)C(=O)c2c(Cl)cccc2-3)no1)C(C)C | 58 to 63
95 | CCCCC1CC(=O)C2(C)CCC3=C4CCC(=O)C=C4CCC3C12 (stereo not drawn) | 159 to 161
96 | CN(C)Cc1nc(CSCCNC(=N)N[N+](=O)[O-])cs1 | 104 to 106
97 | CN1C(=O)C2(CCN(Cc3ccccc3)CC2)N=C(c2ccccc2)c2cc(Cl)ccc21 | 169 to 170
98 | CCOC(=O)NC1N=C(c2ccccc2)c2ccccc2-n2c(C)nnc21 (stereo not drawn) | 198 to 202
